Source: patent US20250177366A1, “COMPOSITIONS AND METHODS FOR ALLEVIATING PAIN AND REDUCING ADVERSIVENESS OF STIMULI” (UNIVERSITY OF WASHINGTON, priority 2021, published 2025)

Tested on: neuronal activity marker phosphorylated-ERK (pERK)
Assay: Whole brain activity profiling, pERK/tERK immunolabeling and MAP-mapping
Format: in vivo, Zebrafish (Danio rerio)
Protocol: To investigate how AS1 might alter central nervous system activity in the presence of nociceptive stimuli, whole brain activity profiling with the neuronal activity marker phosphorylated-ERK (pERK) was performed. Briefly, 6 dpf larval zebrafish were exposed to noxious heat (37.5° C.) or rearing temperature (28.5° C.) in the presence of vehicle or AS1 (either 2.5 or 5 μM) for 15 minutes. Immunolabeling was then performed to detect both total ERK (tERK) and phosphorylated ERK (pERK) (FIG. 8). Volumetric z-stacks of the entire brain of each fish were taken upon a confocal microscope, registered to a reference brain, and smoothed using an ImageJ script. […] Brains from each experimental condition (AS1+28.5° C., Vehicle+37.5° C., and AS1+37.5° C.) with Vehicle+28.5° C. were initially compared to determine how activity under these experimental conditions differed from the baseline state, then the total change in signal in each brain region were subtracted for AS1+28.5° C. and Vehicle+37.5° C. treated fish from AS1+37.5° C. treated fish. This was done to look for brain regions specifically activated in the presence of the noxious stimulus and AS1, reasoning that these areas would drive attraction to noxious stimuli.
pERK Immunolabeling. […]

For `CC(C)c1ccc(C(=O)Nc2ccncc2)cc1` [AS1, 4-propan-2-yl-N-pyridin-4-ylbenzamide], the “share of the top 25 most active regions that are subpallial/dopaminergic populations” value (AS1 + noxious heat (37.5° C.)) was 64% and the “brain regions recruited by AS1 alone” value (AS1-treated fish not exposed to noxious heat (28.5° C.)) was “primarily recruited neuron clusters within the mesencephalon and rhombencephalon”.
